{
  "source": "patent US20230167414A1",
  "about": "“METHODS FOR ISOLATING AND CULTURING TUMOR CELLS” (Georgetown University, priority 2020, published 2023)",
  "key": {"airway epithelial cells": {"tested_on": "airway epithelial cells", "conditions": "cited from earlier work"}, "the cells": {"tested_on": "the cells", "test": "Culture conditions described herein with upstream/downstream ROCK pathway inhibitor in place of a ROCK inhibitor", "assay_type": "cell-based", "conditions": "used in the culture conditions in place of a ROCK inhibitor", "from_the_text": "As used herein, inhibiting ROCK can mean to reduce the activity, function, or expression of at least one of ROCK1 or ROCK2. […] In general, ROCK phosphorylates LEVI kinase and myosin light chain (MLC) phosphatase after being activated through binding of GTP-bound Rho. One embodiment of the present invention thus involves blocking the upstream pathway of ROCK1 and/or ROCK2, for example GTP-bound Rho, such that ROCK1 and/or ROCK2 is not activated or its activity is reduced over untreated cells. Other upstream effectors include, but are not limited to, integrins, growth factor receptors, including but not limited to, TGF-beta and EGFR, cadherins, G protein coupled receptors and the like. Another embodiment of the present invention thus involves blocking the activity, function, or expression of downstream effector molecules of activated ROCK1 and/or ROCK2 such that ROCK1 and/or ROCK2 cannot propagate any signal or can only propagate a reduced signal over untreated cells. Downstream effectors include, but are not limited to, myosin phosphatase-targeting protein (MYPT), vimentin, LIMK, myosin light chain kinase, NHE1, cofilin, Myosin II and the like."}},
  "data": [
    {"compound": "O=S(=O)(c1cccc2cnccc12)N1CCCNCC1", "note": "[HA 1077, fasudil]", "values": [
      {"measurement": "effect of inhibition on airway epithelial cells", "setting": "airway epithelial cells", "value": "induces membrane ruffling, loss of actin stress fibers and apoptosis"}
    ]},
    {"compound": "C[C@@H](N)[C@H]1CC[C@H](C(=O)Nc2ccncc2)CC1", "note": "[Y-27632]", "values": [
      {"measurement": "effect of inhibition on airway epithelial cells", "setting": "airway epithelial cells", "value": "induces membrane ruffling, loss of actin stress fibers and apoptosis"}
    ]},
    {"compound": "Cc1ccc2c(c1)C(=O)C1(O)CCN(c3ccccc3)C1=N2", "note": "(stereo not shown) [blebbistatin]", "values": [
      {"measurement": "effect on cells (differentiation / proliferation in vitro)", "setting": "the cells", "value": "allow the cells to bypass differentiation and allow proliferation in vitro"}
    ]},
    {"compound": "C3 transferase", "values": [
      {"measurement": "effect on cells (differentiation / proliferation in vitro)", "setting": "the cells", "value": "allow the cells to bypass differentiation and allow proliferation in vitro"}
    ]}
  ]
}
